What all share (experiment): NCI tumour cell line growth inhibition, 48 h
For assay [1], the system named is A498 renal.
Assay [2] relates to CCRF-CEM leukemia.
The test system of assay [3] is DU-145 prostate.
The test system of assay [4] is HL-60(TB) leukemia.
The test system of assay [5] is HOP-62 NSCLC.
For assay [6], the system named is HS 578T breast.
For assay [7], the system named is MALME-3M melanoma.
The subject of assay [8] is MDA-N.
In assay [9] the test system is NCI-H226 lung.
In assay [10] the test system is NCI-H23 lung.
The test system of assay [11] is OVCAR-4 ovarian.
The subject of assay [12] is RPMI-8226 leukemia.
Assay [13] has as its system SF-268 CNS.
Assay [14] has as its system SK-MEL-28 melanoma.
Assay [15] concerns SK-MEL-5 melanoma.
In assay [16] the test system is SNB-75 CNS.
Assay [17] concerns SR leukemia.
Assay [18] concerns TK-10 renal.
The test system of assay [19] is UO-31 renal.

For 15 compounds, TGI and GI50 results are on record in PubChem BioAssay (NCI).

Each structure is given as a SMILES string.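 In this assay, cells in 96-well plates receive the compound at five concentrations for 48 hours. Endpoints are linearly interpolated between the surrounding concentrations. Abbreviation: GI50, concentration required for 50% inhibition of growth. TGI denotes the concentration required for complete inhibition of growth.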

Consider `Cc1ccc(S(=O)ON2CCC(C(=O)O)(c3ccccc3)CC2)cc1` (stereo not drawn), for which the TGI in assay [1], in assay [2], in [3], in assay [4], in [5] and in assay [6] was > 100 µM each time. Further, the TGI in assay [7], in assay [8], in assay [9], in assay [10], in [11] and in assay [12] was > 100 µM throughout. Further, the TGI in assay [13], in [14], in [15], in assay [16], in assay [17] and in assay [18] was > 100 µM throughout. The TGI in [19] was > 100 µM. In addition, the GI50 in [17] is > 100 µM.

For the compound `COc1cc(NS(C)(=O)=O)ccc1NCc1cnc2ccc3[nH]c(C)ccc3c12`, the TGI was 42 µM in assay [1]; 67.2 µM in assay [2]; 89.1 µM in assay [3]; 34.9 µM in assay [4]; > 100 µM in assay [5]; > 100 µM in [6]. Further, the TGI was > 100 µM in assay [7]; > 100 µM in assay [8]; > 100 µM in [9]; > 100 µM in [10]; > 100 µM in assay [11]; 45.2 µM in [12]. The TGI was > 100 µM in [13]; > 100 µM in assay [14]; > 100 µM in assay [15]; 78.4 µM in assay [16]; 33.5 µM in [17]; > 100 µM in assay [18]. This compound also registered a TGI in [19] of 60.6 µM.

`COc1ccc(/C=C2\C=Cc3ccccc32)cc1OC`: the TGI in assay [1] is > 100 µM; in [2], > 100 µM; in assay [3], > 100 µM; in assay [4], 69.5 µM; in assay [5] it was > 100 µM; in [6], 89.6 µM. Further, the TGI in assay [7], in assay [8], in [9], in assay [10], in assay [11] and in assay [13] was > 100 µM in each case. Moreover, the TGI in assay [14] was > 100 µM; in assay [15] it was > 100 µM; in [16], 82.2 µM; in assay [17], > 100 µM; in [18], > 100 µM.

As for `CSC1=N/C(=C\c2ccc(C)cc2)C(=O)N1CN1CCOCC1`, the TGI in assay [1], in [2], in assay [3], in assay [4], in assay [5] and in assay [6] was > 100 µM throughout. Further, the TGI in assay [7] is > 100 µM; in assay [8], > 100 µM; in assay [9], > 100 µM; in assay [10] it was > 100 µM; in assay [11], 32.9 µM; in assay [12], > 100 µM. Moreover, the TGI in assay [13], in assay [15], in [16], in [17], in assay [18] and in [19] was > 100 µM throughout.

On to `C=C[C@@H]1OC(=O)O[C@H]1CO`, for which the TGI in assay [1], in assay [2], in [3], in assay [5], in [6] and in assay [7] was > 100 µM each time. For the same compound, the TGI in assay [8], in [9], in assay [10], in assay [11], in [12] and in [13] was > 100 µM in each case. Further, the TGI in [14], in assay [15], in [16], in assay [17], in [18] and in assay [19] was > 100 µM each time.

Regarding `O=c1[nH]c2ccc(C(F)(F)F)cc2nc1-c1ccccc1`, the TGI in [1], in assay [2], in [3], in assay [4], in assay [5] and in [6] was > 100 µM throughout. In addition, the TGI in [7], in assay [8], in assay [10], in assay [12], in [13] and in assay [14] was > 100 µM each time. Also, the TGI in assay [15], in assay [16], in [17] and in [18] was > 100 µM each time.

With `Clc1ccc(-c2nn3c(CCCCCCCCc4nnc5sc(-c6ccc(Cl)cc6)nn45)nnc3s2)cc1`, the TGI in [1] is > 85.9 µM; in assay [2], 60.3 µM; in assay [3], > 61.4 µM; in assay [5] it was > 83.2 µM; in [6], > 100 µM; in [7], > 90.4 µM. In addition, the TGI in [8] was > 94.7 µM; in assay [9], > 100 µM; in [10] it was > 92.6 µM; in [11], > 64.6 µM; in assay [12], 72.2 µM; in assay [13] it was > 100 µM. For the same compound, the TGI is > 79.7 µM in assay [14]; 60.3 µM in assay [15]; 75.3 µM in [16]; > 74.3 µM in assay [17]; > 100 µM in [18]; 29.4 µM in assay [19].

In the case of `CCOC(=O)C1(C(=O)OCC)C[C@]23OCCC(=O)[C@H]2[C@H]2C(=O)OC(C)(C)O[C@]23C1`, the TGI in assay [1], in assay [2], in assay [3], in assay [4], in assay [5] and in [6] was > 100 µM each time. Besides, the TGI in [7], in assay [8], in assay [10], in assay [11], in assay [12] and in assay [13] was > 100 µM each time. Further, the TGI in assay [14], in [15], in assay [16], in assay [17], in assay [18] and in assay [19] was > 100 µM throughout.

Turning to `O=C(OCCN=C1c2ccccc2CCc2ccccc21)c1cc([N+](=O)[O-])cc([N+](=O)[O-])c1`, the TGI in assay [2] is > 100 µM; in [3], > 31.6 µM; in assay [4], > 100 µM; in assay [5], > 31.6 µM; in assay [6] it was > 31.6 µM; in [7] it was > 31.6 µM. Also, the TGI in [8] was > 31.6 µM; in assay [9], > 31.6 µM; in [10], > 31.6 µM; in [11], > 100 µM; in assay [12], 8.14 µM; in assay [13], > 31.6 µM. In addition, the TGI in [14] was > 31.6 µM; in assay [15], > 31.6 µM; in assay [16], > 100 µM; in assay [17] it was 5.5 µM; in assay [18], > 31.6 µM; in [19], > 100 µM.

For the compound `CC(C)(C)OC(=O)[N+](=N)C(=O)C1CCC(=O)N1C(=O)OCc1ccccc1` (stereo not drawn), the TGI in assay [2], in assay [3], in assay [4], in [5], in [6] and in [7] was > 100 µM each time. The TGI in assay [8], in assay [9], in assay [10], in assay [11], in [12] and in assay [13] was > 100 µM in each case. Moreover, the TGI in assay [14], in assay [15], in assay [16], in assay [17], in assay [18] and in [19] was > 100 µM throughout.

As to `CCOC(=O)CN1CCNCCN(CC(=O)OCC)CCNCC1`, the TGI in assay [1], in [2], in assay [3], in [4], in [5] and in assay [6] was > 100 µM each time. Also, the TGI in assay [8], in assay [9], in assay [11], in [12], in [14] and in [15] was > 100 µM throughout. For the same compound, the TGI in assay [16], in [17], in [18] and in assay [19] was > 100 µM in each case.

Consider `CC1=C(/C=C/C(C)=C/C=C/C(C)=C/C(=O)OCC2OC(n3cc(F)c(=O)[nH]c3=O)CC2OC(=O)/C=C(C)/C=C/C=C(C)/C=C/C2=C(C)CCCC2(C)C)C(C)(C)CCC1` (stereo not drawn), for which the TGI in assay [2] is > 28.8 µM; in [3] it was > 46.3 µM; in assay [4], > 41.9 µM; in assay [5] it was > 27.9 µM; in assay [6], > 68.8 µM; in assay [7] it was > 100 µM. For the same compound, the TGI in assay [8] was > 48.4 µM; in assay [9] it was > 69.3 µM; in assay [10], > 90 µM; in assay [11] it was > 81.8 µM; in assay [12], 42.6 µM; in assay [13], > 85.3 µM. The TGI in assay [14] was > 77.6 µM; in [15], 19.8 µM; in assay [16], > 100 µM; in assay [17], > 59.6 µM; in assay [18], > 58.4 µM; in assay [19] it was > 26.3 µM.

`Cc1ccc(/C=C2\CN(C)CC3=C2OC(N)=C(C#N)C3c2ccc(C)cc2)cc1` (stereo not drawn): the TGI in assay [1] was 45.2 µM; in assay [2], 22 µM; in assay [3], 44.7 µM; in assay [4], > 100 µM; in assay [5], 52.7 µM; in [6], > 100 µM. For the same compound, the TGI in assay [7] is 37.2 µM; in assay [8], 38.1 µM; in assay [9] it was 72.4 µM; in assay [10], 62.6 µM; in assay [11] it was 34 µM; in assay [12], > 48.7 µM. For the same compound, the TGI in assay [13] was > 100 µM; in [14] it was > 71.5 µM; in assay [15], > 100 µM; in [17] it was > 100 µM; in [18], > 80.8 µM; in assay [19] it was 53.4 µM.

Regarding `Cc1cc2nc3n[nH]c(N)c3nc2cc1C`, the TGI in assay [1], in assay [2], in assay [3], in assay [4], in assay [5] and in assay [6] was > 100 µM each time. In addition, the TGI in [7], in assay [8], in assay [9], in assay [10], in assay [11] and in [12] was > 100 µM throughout. For the same compound, the TGI is > 100 µM in [13]; > 100 µM in assay [14]; 87.8 µM in assay [16]; > 100 µM in [17]; > 100 µM in [18]; > 100 µM in assay [19].

On to `CNC(=S)/C(=N\Nc1nc[nH]c1C(N)=O)C(N)=S`, for which the TGI in assay [1] was > 75.6 µM; in assay [3], 34.9 µM; in [4], 7.83 µM; in [5] it was > 100 µM; in [6] it was > 81.8 µM; in [7], > 54.8 µM. Moreover, the TGI in [8] was > 63 µM; in [9], > 33.9 µM; in assay [10] it was > 94.7 µM; in assay [11], > 100 µM; in assay [12], 55.7 µM; in [13] it was > 54.2 µM. Also, the TGI in assay [14] was > 100 µM; in [15] it was 81.3 µM; in assay [16] it was 71.9 µM; in [17], 0.468 µM; in assay [18], > 57.5 µM; in [19], 18.3 µM.
